According to ChEMBL document CHEMBL1773045, “Conjugate (MTC-220) of muramyl dipeptide analogue and paclitaxel prevents both tumor growth and metastasis in mice” (J Med Chem, 2011):
Active and inactive are the calls of the source. No cut-off for these calls is given here.

Experiments:
[1] = test system: Lewis lung carcinoma cell line; assay: Antitumor activity against mouse LLC cells xenografted in C57BL/6 mouse assessed as tumor growth inhibition at 6 mg/kg, ip qd for 15 days relative to control; type: functional; conditions: 360 h, route intraperitoneal, read-out: GI
[2] = test system: Lewis lung carcinoma cell line; assay: Antimetastatic activity against mouse LLC cells xenografted in C57BL/6 mouse assessed as inhibition of lung metastasis at 6 mg/kg, ip qd for 15 days relative to control; type: functional, organism-based; set-up: dose 6 mg/kg
Mus musculus [3] = assay: Toxicity in mouse LLC cells xenografted C57BL/6 mouse assessed as decrease in body weight at 6 mg/kg, ip qd for 15 days; type: organism-based; set-up: dose 6 mg/kg, route intraperitoneal; conditions: in vivo, 360 h
Mus musculus [4] = assay: Toxicity in mouse 4T1 cells xenografted […] mouse assessed as decrease in body weight at 3 mg/kg, ip qd for 28 days; type: organism-based; set-up: dose 3 mg/kg, route intraperitoneal; conditions: in vivo, 672 h
4T1 [5] = assay: Antitumor activity against mouse 4T1 cells xenografted in […] mouse assessed as tumor growth inhibition at 3 mg/kg, ip qd for 28 days relative to control; type: functional; conditions: 4T1, ip, 672 h, route intraperitoneal, read-out: GI
4T1 [6] = assay: Antimetastatic activity against mouse 4T1 cells xenografted in […] mouse assessed as inhibition of lung metastasis at 3 mg/kg, ip qd for 28 days; type: functional, organism-based; set-up: dose 3 mg/kg
Mus musculus [7] = assay: Antimetastatic activity against mouse 4T1 cells xenografted in BALB/c mouse assessed as reduction of myeloid derived suppressor cells accumulation in spleen at 3 mg/kg, ip qd for 23 days by flow cytometry analysis relative to control; type: functional; set-up: scale not given: the % may be the effect or the level left; conditions: route intraperitoneal
Mus musculus [8] = assay: Antimetastatic activity against mouse 4T1 cells xenografted in BALB/c mouse assessed as reduction of myeloid derived suppressor cells accumulation in bone marrow at 3 mg/kg, ip qd for 23 days by flow cytometry analysis relative to control; type: functional; set-up: scale not given: the % may be the effect or the level left; conditions: route intraperitoneal

In the case of CC(=O)O[C@H]1C(=O)[C@@]2(C)[C@H]([C@H](OC(=O)c3ccccc3)[C@]3(O)C[C@H](OC(=O)[C@H](O)[C@@H](NC(=O)c4ccccc4)c4ccccc4)C(C)=C1C3(C)C)[C@]1(OC(C)=O)CO[C@@H]1C[C@@H]2O [PACLITAXEL], the inhibition in vivo at 6 mg/kg [1] is reported as 26.2%, the “growth inhibition (GI)” value [2] is reported as “inactive” and the Activity (Mus musculus [3]) is reported as “Non-toxic”. For the same compound, the Activity (Mus musculus [4]) was “Non-toxic”, the inhibition in vivo at 3 mg/kg (4T1 [5]) was 30.5% and the “growth inhibition (GI)” value (4T1 [6]) was “inactive”. The Activity (Mus musculus [7]) was 46.7% and the Activity (Mus musculus [8]) was 79.1%.
